Article PMC5053523, “In Vitro Antibacterial Activity of Rhodanine Derivatives against Pathogenic Clinical Isolates” (PLoS ONE, 2016)
Where two headings read alike, the source gives them in different places.

Tests used:
Type in all cases: cell-based
B. cereus = experiment: Broth microdilution MIC/MBC, B. cereus; conditions: Bacillus cereus; for MBC: read-out: MBC; for MIC: read-out: MIC
Description: The broth microdilution technique was used, followed by subculturing on agar plates that were rhodanine—free.

[1] = test system: vancomycin resistant enterococci (VRE) E. faecium; experiment: Broth microdilution MIC/MBC, VRE E. faecium; conditions: for MIC: read-out: MIC
Acinetobacter baumannii [2] = experiment: Broth microdilution MIC, Acinetobacter baumannii
[3] = test system: vancomycin resistant enterococci (VRE) E. faecalis; experiment: Broth microdilution MIC/MBC, VRE E. faecalis; conditions: for MIC: read-out: MIC
[4] = test system: methicillin-resistant Staphylococcus aureus (MRSA); experiment: Broth microdilution MIC/MBC, MRSA
Mycobacterium smegmatis = experiment: Broth microdilution MIC/MBC, Mycobacterium smegmatis; conditions: Mycolicibacterium smegmatis, ATCC14468, M. Smegmatis ATCC 14468
Klebsiella pneumoniae = experiment: MIC with/without sub-MIC colistin, Klebsiella pneumoniae
Outline: (§1)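 Compounds plus sub-inhibitory colistin or PMBN; MIC against Gram-negatives, with control antibiotics in parallel.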

Escherichia coli Δ acrAB = experiment: MIC against E. coli 1411 and AcrAB efflux pump deficient E. coli SM1411Δ acrAB
Outline: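 Sub-MIC colistin or PMBN added to broth MIC tests of rhodanines and reference antibiotics against Gram-negative strains; AcrAB efflux-deficient E. coli SM1411ΔacrAB also tested.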

Acinetobacter baumannii [5] = experiment: MIC with/without sub-MIC colistin, Acinetobacter baumannii
Outline: as §1

[6] = test system: Vancomycin Resistant Staphylococcus aureus (VRSA); experiment: Broth microdilution MIC/MBC, VRSA; conditions: for MBC / MIC: VRSA
[7] = NRS201, B. cereus NRS 201 NR-2488
[8] = E. faecium HM 968 Strain ERV102
[9] = E. faecium NR31914 Strain E0120
[10] = E. faecium Patient #1–1 NR-31903
[11] = E. faecalis NR31972 Strain SF 28073

O=C(O)[C@@H](Cc1ccccc1)N1C(=O)/C(=C/c2cccc(Cc3ccccc3)c2)SC1=S [Rh 7]
32 µM: MBC [1, 9] | MBC ([6]; VRSA 1, read-out: MBC) | MBC ([6]; VRSA 3b, read-out: MBC) | MBC ([6]; VRSA 11b, read-out: MBC) | MBC ([6]; VRSA 13, read-out: MBC)
2 µM: MIC (B. cereus; B. cereus BAG1X1-1 NR-28575)
64 µM: MBC ([1]; E. faecium E417 HM-965) | MBC ([4]; MRSA NRS 384)
8 µM: MBC (B. cereus; B. cereus G9241 NR-9564) | MIC (B. cereus; B. cereus G9241 NR-9564) | MIC ([1]; E. faecium E417 HM-965) | MIC [1, 10] | MIC ([3]; E. faecalis R712 HM-335) | MIC50 ([4]; 11 MRSA strains) | MIC ([4]; MRSA NRS 1) | MBC ([4]; MRSA NRS 19) | MIC ([4]; MRSA NRS 19) | MBC ([4]; MRSA NRS 119) | MIC ([4]; MRSA NRS 119) | MIC ([4]; MRSA NRS 384) | MIC ([4]; MRSA NRS 385) | MIC ([4]; MRSA NRS 386) | MBC ([4]; MRSA NRS 387) | MIC ([4]; MRSA NRS 387) | MIC50 ([6]; 15 VRSA strains, read-out: MIC 50) | MBC ([6]; VRSA 2, read-out: MBC) | MIC ([6]; VRSA 2, read-out: MIC) | MBC ([6]; VRSA 3a, read-out: MBC) | MIC ([6]; VRSA 3a, read-out: MIC) | MIC ([6]; VRSA 3b, read-out: MIC) | MIC ([6]; VRSA 4, read-out: MIC) | MBC ([6]; VRSA 5, read-out: MBC) | MIC ([6]; VRSA 5, read-out: MIC) | MIC ([6]; VRSA 6, read-out: MIC) | MIC ([6]; VRSA 7, read-out: MIC) | MIC ([6]; VRSA 8, read-out: MIC) | MIC ([6]; VRSA 10, read-out: MIC) | MIC ([6]; VRSA 11a, read-out: MIC) | MIC ([6]; VRSA 11b, read-out: MIC) | MIC ([6]; VRSA 12, read-out: MIC) | MIC ([6]; VRSA 13, read-out: MIC)
16 µM: MIC ([1]; E. faecium E1071 NR-28978) | MIC [1, 8] | MIC [1, 9] | MBC [1, 10] | MBC ([3]; E. faecalis ERV103 HM-934) | MIC ([3]; E. faecalis ERV103 HM-934) | MBC [3, 11] | MIC [3, 11] | MBC ([3]; E. faecalis R712 HM-335) | MBC ([3]; E. faecalis S613 HM-334) | MIC ([3]; E. faecalis S613 HM-334) | MBC ([3]; E. faecalis TX0104 HM-201) | MIC ([3]; E. faecalis TX0104 HM-201) | MIC90 ([4]; 11 MRSA strains) | MBC ([4]; MRSA NRS 1) | MBC ([4]; MRSA NRS 37) | MIC ([4]; MRSA NRS 37) | MBC ([4]; MRSA NRS 107) | MIC ([4]; MRSA NRS 107) | MBC ([4]; MRSA NRS 383) | MIC ([4]; MRSA NRS 383) | MBC ([4]; MRSA NRS 385) | MBC (Mycobacterium smegmatis; read-out: MBC) | MIC (Mycobacterium smegmatis; read-out: MIC) | MIC90 ([6]; 15 VRSA strains, read-out: MIC 90) | MIC ([6]; VRSA 1, read-out: MIC) | MBC ([6]; VRSA 4, read-out: MBC) | MBC ([6]; VRSA 6, read-out: MBC) | MBC ([6]; VRSA 7, read-out: MBC) | MBC ([6]; VRSA 8, read-out: MBC) | MBC ([6]; VRSA 9, read-out: MBC) | MIC ([6]; VRSA 9, read-out: MIC) | MBC ([6]; VRSA 10, read-out: MBC) | MBC ([6]; VRSA 11a, read-out: MBC) | MBC ([6]; VRSA 12, read-out: MBC)
> 128 µM: MIC (Acinetobacter baumannii [2]; ATCC13345) | MIC (Acinetobacter baumannii [2]; ATCC17786) | MIC (Klebsiella pneumoniae; Klebsiella pneumoniae, BAA2146) | MIC (Acinetobacter baumannii [5]; Acinetobacter baumannii, ATCCBAA747) | MIC (Acinetobacter baumannii [5]; Acinetobacter baumannii, ATCCBAA19606)
4 µM: MBC (B. cereus; B. cereus BAG1O-2 NR-28582) | MIC (B. cereus; B. cereus BAG1O-2 NR-28582) | MBC (B. cereus; B. cereus BAG1X1-1 NR-28575) | MBC (B. cereus; B. cereus BAG1X2-1 NR-28578) | MIC (B. cereus; B. cereus BAG1X2-1 NR-28578) | MBC (B. cereus; B. cereus VD014 NR-22141) | MIC (B. cereus; B. cereus VD014 NR-22141) | MBC (B. cereus; B. cereus VD115 NR-22148) | MIC (B. cereus; B. cereus VD115 NR-22148) | MBC (B. cereus; B. cereus VD148 NR-22150) | MIC (B. cereus; B. cereus VD148 NR-22150) | MBC (B. cereus; [7]) | MIC (B. cereus; [7])
>64 µM: MIC (Klebsiella pneumoniae; Klebsiella pneumoniae ATCC BAA 2146, colistin (+) […]) | MIC (Acinetobacter baumannii [5]; Acinetobacter baumannii ATCC BAA747, colistin (+) […], read-out: MIC) | MIC (Acinetobacter baumannii [5]; Acinetobacter baumannii ATCC BAA19606, colistin (+) […], read-out: MIC)
> 64 µM: MBC ([1]; E. faecium E1071 NR-28978) | MBC [1, 8] | MBC ([4]; MRSA NRS 386) | MIC (Escherichia coli Δ acrAB; E.coli 1411) | MIC (Escherichia coli Δ acrAB; E.coli 1411 SM (Δ acrAB, AcrAB efflux pump deficient))
